Test results: ChEMBL document CHEMBL5252613, “Discovery and anti-tumor activity of 4-(benzylamino)-6-(3,5-dimethylisoxazol-4-yl)quinolin-2(1H)-one (CG13250), a potent, selective and orally bioavailable BET bromodomain inhibitor” (Bioorg Med Chem Lett, 2023)

Tests used:
[1] = molecular target: T1, Bromodomain-containing protein 4 (Homo sapiens, UniProt O60885); test: Inhibition of BRD4 bromodomain 1/2 (unknown origin) assessed as dissociation constant by DiscoveRx BROMOscan assay
[2] = test system: MV4-11; test: Growth inhibition of human MV4-11 cells measured after 72 hrs; assay type: functional
[3] = molecular target: T1, Bromodomain-containing protein 4; test: Inhibition of BRD4 bromodomain 1/2 (unknown origin) by Alphascreen assay

Compound | Kd [1] [nM] | GI50 [2] [nM] | IC50 [3] [nM]
Cc1noc(C)c1-c1ccc2[nH]c(=O)cc(N3CCCCC3)c2c1 | 54 | 833 | –
Cc1noc(C)c1-c1ccc2[nH]c(=O)cc(-c3ccccc3)c2c1 | 1300 | 16000 | 3100
Cc1noc(C)c1-c1ccc2[nH]c(=O)cc(NCc3cc(Cl)cc(Cl)c3)c2c1 | 170 | 1400 | –
Cc1noc(C)c1-c1ccc2[nH]c(=O)cc(O)c2c1 | 3400 | > 100000 | 16000
Cc1noc(C)c1-c1ccc2[nH]c(=O)cc(NCc3cccc(Cl)c3)c2c1 | 28 | 1220 | –

Other lines, results leading:

Kd [1] [nM] | GI50 [2] [nM] | IC50 [3] [nM] | Compound
95 | 1580 | – | COc1cccc(CNc2cc(=O)[nH]c3ccc(-c4c(C)noc4C)cc23)c1
370 | 1990 | – | Cc1noc(C)c1-c1ccc2[nH]c(=O)cc(N3CCCC3)c2c1
490 | 5720 | – | Cc1noc(C)c1-c1ccc2[nH]c(=O)cc(NCCc3ccccc3)c2c1
35 | 1040 | – | COc1ccccc1CNc1cc(=O)[nH]c2ccc(-c3c(C)noc3C)cc12
– | 220 | 3700 | Cc1ccc(-c2nnc(Sc3c(-c4ccccc4)c4cc(Br)ccc4[nH]c3=O)n2N)cc1
